Measured values published in patent publication US8653096B2, “Chemokine receptor antagonists and methods of use thereof” (Millennium Pharmaceuticals, Inc., priority 2001, dated 2014).

Target: T1, RANTES/MIP-1α chemokine receptor (CCR1) in THP-1 cell membranes (Homo sapiens, UniProt P32246)
T1 construct: Membranes were prepared from THP-1 cells (ATCC #TIB202); host or cells: THP-1 cells (membrane preparation)
T1 sequence (P32246 1-355): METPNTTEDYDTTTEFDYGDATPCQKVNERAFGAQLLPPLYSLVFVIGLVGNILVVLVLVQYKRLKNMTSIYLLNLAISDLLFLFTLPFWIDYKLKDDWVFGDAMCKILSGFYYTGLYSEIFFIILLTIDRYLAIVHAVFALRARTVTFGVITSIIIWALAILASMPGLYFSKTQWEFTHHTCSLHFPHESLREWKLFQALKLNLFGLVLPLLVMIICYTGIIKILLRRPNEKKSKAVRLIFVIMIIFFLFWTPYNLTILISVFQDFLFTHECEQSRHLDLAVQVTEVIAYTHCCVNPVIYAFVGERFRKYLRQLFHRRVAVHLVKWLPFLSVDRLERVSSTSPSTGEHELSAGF
Assay: Receptor binding assay: 125I-RANTES or 125I-MIP-1α binding to THP-1 cell membranes
Settings: inhibitor concentration required for 50% inhibition of specific binding; 125I-RANTES or 125I-MIP-1α as ligand, THP-1 cell membranes; read-out: IC50

Structure (SMILES) | IC50 [nM]
O=C1c2ccccc2C(=CCCN2CCC(O)(c3ccc(Cl)cc3)CC2)c2ccccc2N1CCCO [Example 42, 4-(4-Chlorophenyl)-1-[3-(6,11-dihydro-5-(3-hydroxypropyl)-6-oxo-5H-dibenz[b,e]azepin-11-ylidene)propyl]piperidin-4-ol] | < 1000
CC(C)(C)OC(=O)CN1C(=O)c2ccccc2C(=CCCN2CCC(O)(c3ccc(Cl)cc3)CC2)c2ccccc21 [Example 43, 1-[3-(5-tert-Butoxycarbonymethyl-6,11-dihydro-6-oxo-5H-dibenz[b,e]azepin-11-ylidene)propyl]-4-(4-chlorophenyl)-piperidin-4-ol] | < 10000
O=C1Nc2ncccc2C(=CCCN2CCC(O)(c3ccc(Cl)cc3)CC2)c2ccccc21 [Example 55, 4-(4-Chlorophenyl)-1-[3-(10,11-dihydro-10-oxo-5H-pyrido[2,3-c][2]benzazepin-5-ylidene)propyl]piperidin-4-ol] | < 1000
CN1C(=O)c2ccccc2C(=CCCN2CCC(O)(c3ccc(Cl)cc3)CC2)c2cccnc21 [Example 56, 4-(4-Chlorophenyl)-1-[3-(10,11-dihydro-11-methyl-10-oxo-5H-pyrido[2,3-c][2]benzazepin-5-ylidene)propyl]piperidin-4-ol] | < 1000
COc1ccc2c(c1)C(=CCN1CCC(O)(c3ccc(Cl)cc3)CC1)c1cccnc1CO2 [Example 57, 4-(4-Chlorophenyl)-1-[3-(5,11-dihydro-7-methoxy[1]benzoxepino [2,3-b]pyridin-5-ylidene)ethyl]piperidin-4-ol] | < 10000
COc1ccc2c(c1)C(=CCCN1CCC(O)(c3ccccc3)CC1)c1cccnc1CO2 [Example 59, 1-[3-(5,11-Dihydro-7-methoxy[1]benzoxepino[2,3-b]pyridin-5-ylidene)propyl]piperidin-4-phenyl-4-ol] | < 1000
COc1ccc2c(c1)C(=CCCN1CCC(n3c(=O)[nH]c4ccccc43)CC1)c1cccnc1CO2 [Example 67, 1-[3-(5,11-Dihydro-7-methoxy[1]benzoxepino[2,3-b]pyridin-5-ylidene)propyl]-4-(2-keto-1-benzimidazolinyl)piperidine] | < 1000
COc1ccc2c(c1)C(=CCCN1CCC(n3c(=O)n(C)c4ccccc43)CC1)c1cccnc1CO2 [Example 68, 1-[3-(5,11-Dihydro-7-methoxy[1]benzoxepino[2,3-b]pyridin-5-ylidene)propyl]-4-(2-keto-3-methyl-1-benzimidazolinyl)piperidine] | < 10000
COc1ccc2c(c1)C(=CCCN1CCC(O)(c3ccc(C)cc3)CC1)c1cccnc1CO2 [Example 78, 1-[3-(5,11-Dihydro-7-methoxy[1]benzoxepino[2,3-b]pyridin-5-ylidene)propyl]-4-(p-toly)piperidin-4-ol] | < 1000
COc1ccc2c(c1)C(=CCCN1CCN(S(=O)(=O)c3ccc(C)cc3)CC1)c1cccnc1CO2 [Example 89, 1-[3-(5,11-Dihydro-7-methoxy[1]benzoxepino[2,3-b]pyridin-5-ylidene)propyl]-4-(p-tosyl)piperazine] | > 10000
CN(C)CCOc1ccc2c(c1)C(=CCCN1CCC(O)(c3ccc(Cl)cc3)CC1)c1cccnc1CO2 [Example 131] | < 1000
OC1(c2ccc(Cl)cc2)CCN(CCC=C2c3cc(OCc4nnn[nH]4)ccc3OCc3ncccc32)CC1 [Example 132] | < 1000
CCOC(=O)COc1ccc2c(c1)C(=CCCN1CCC(c3ccc(Cl)cc3)CC1)c1cccnc1CO2 [Example 153, 4-(4-Chlorophenyl)-1-[3-(5,11-dihydro-7-thoxycarbonylmethyloxy[1]benzoxepino[2,3-b]pyridin-5-ylidene)propyl]piperidine] | < 1000
O=C(O)COc1ccc2c(c1)C(=CCCN1CCC(c3ccc(Cl)cc3)CC1)c1cccnc1CO2 [Example 154] | < 1000
COCCOc1ccc2c(c1)C(=CCCN1CCC(O)(c3ccc(Cl)cc3)CC1)c1cccnc1CO2 [Example 175] | < 1000
CN(C)C(=O)C(C)(C)Oc1ccc2c(c1)C(=CCCN1CCC(O)(c3ccc(Cl)cc3)CC1)c1cccnc1CO2 [Example 176, 4-(4-Chlorophenyl)-1-[3-(7-(1-dimethyaminocarbonyl-1-methyl)ethyloxy-5,11-dihydro[1]benzoxepino[2,3-b]pyridin-5-ylidene)propyl]piperidin-4-ol] | < 1000
O=C(O)C1(Oc2ccc3c(c2)C(=CCCN2CCC(O)(c4ccc(Cl)cc4)CC2)c2cccnc2CO3)CCC1 [Example 180, 1-[3-(7-(1-Carboxy)cyclbutoxy-5,11-dihydro[1]benzoxepino[2,3-b]pyridin-5-ylidene)propyl]-4-(4-chlorophenyl)piperidin-4-ol] | < 1000

Structure (SMILES) | IC50 [nM]
Oc1ccc2c(c1)C(=CCCN1CC=C(c3ccc(Cl)cc3)CC1)c1cccnc1CO2 [Example 193] | < 1000
CC(C)(CO)Oc1ccc2c(c1)C(=CCCN1CCC(O)(c3ccc(Cl)cc3)CC1)c1cccnc1CO2 [Example 199, 4-(4-Chlorophenyl)-1-[3-(7-(2-(1-hydroxy-2-methyl)propyl)oxy-5,11-dihydro[1]benzoxepino[2,3-b]pyridin-5-ylidene)propyl]piperidin-4-ol] | < 1000
CC(C)(O)COc1ccc2c(c1)C(=CCCN1CCC(O)(c3ccc(Cl)cc3)CC1)c1cccnc1CO2 [Example 200, 4-(4-Chlorophenyl)-1-[3-(7-(1-(2-methyl-2-hydroxy)propyl)oxy-5,11-dihydro[1]benzoxepino[2,3-b]pyridin-5-ylidene)propyl]piperidin-4-ol] | < 1000
CCOCCOc1ccc2c(c1)C(=CCCN1CCC(O)(c3ccc(Cl)cc3)CC1)c1cccnc1CO2 [Example 203] | < 1000
OCC(O)COc1ccc2c(c1)C(=CCCN1CCC(O)(c3ccc(Cl)cc3)CC1)c1cccnc1CO2 (stereo not drawn) [Example 205, 4-(4-Chlorophenyl)-1-[3-(5,11-dihydro-7-(1-(2,3-dihydroxy)propyloxy)[1]benzoxepino[2,3-b]pyridin-5-ylidene)propyl]piperidin-4-ol] | < 1000
CC(C)(Oc1ccc2c(c1)C(=CCCN1CCC(O)(c3ccc(Cl)cc3)CC1)c1cccnc1CO2)C(N)=O [Example 211, 1-[3-(7-(1-Carbamoyl-1-methyl)ethyloxy-5,11-dihydro [1]benzoxepino[2,3-b]pyridin-5-ylidene)propyl]-4-(4-chlorophenyl)piperidin-4-ol] | < 1000
CNC(=O)C(C)(C)Oc1ccc2c(c1)C(=CCCN1CCC(O)(c3ccc(Cl)cc3)CC1)c1cccnc1CO2 [Example 212, 4-(4-Chlorophenyl)-1-[3-(5,11-dihydro-7-(1-methylaminocarbonyl-1-methyl)ethyloxy[1]benzoxepino[2,3-b]pyridin-5-ylidene)propyl]piperidin-4-ol] | < 1000
CN(C)C(=O)C=Cc1ccc2c(c1)C(=CCCN1CCC(O)(c3ccc(Cl)cc3)CC1)c1cccnc1CO2 [Example 215, 4-(4-Chlorophenyl)-1-[3-(7-(2-dimethylaminocarboxy)ethenyl-5,11-dihydro[1]benzoxepino[2,3-b]pyridin-5-ylidene)propyl]piperidin-4-ol] | < 1000
CC(C)(O)c1ccc2c(c1)C(=CCCN1CCC(O)(c3ccc(Cl)cc3)CC1)c1cccnc1CO2 [Example 242, 4-(4-Chlorophenyl)-1-[3-(5,11-dihydro-7-(1-hydroxy-1-methyl)ethyl[1]benzoxepino[2,3-b]pyridin-5-ylidene)propyl]piperidin-4-ol] | < 1000
COc1ccc2c(c1)C(=CCCN1CCOC(c3ccc(Cl)cc3)OCC1)c1cccnc1CO2 [Example 249, 5-(4-Chlorophenyl)-1-[3-(5,11-dihydro-7-methoxy[1]benzoxepino[2,3-b]pyridin-5-ylidene)propyl]-4,6-dioxazacane] | < 1000
CC(C)(Oc1ccc2c(c1)C(=CCC[N+]1(C)CCC(O)(c3ccc(Cl)cc3)CC1)c1cccnc1CO2)C(N)=O (stereo not drawn) [Example 262, 1-[3-(7-(1-Carbamoyl-1-methyl)ethyloxy-5,11-dihydro[1]benzoxepino[2,3-b]pyridin-5-ylidene)propyl]-4-(4-chlorophenyl)-4-hydroxy-1-methylpiperidinium iodide] | < 1000
COC(=O)c1ccc2c(c1)C(=CCCN1CCC(O)(c3ccc(Cl)cc3)CC1)c1cccnc1CO2 [Example 273] | < 1000
OC1(c2ccc(Cl)cc2)CCN(CCC=C2c3cc(CN4CCOCC4)ccc3OCc3ncccc32)CC1 [Example 278, 4-(4-Chlorophenyl)-1-[3-(5,11-dihydro-7-(4-morpholino)methyl[1]benzoxepino[2,3-b]pyridin-5-ylidene)propyl]piperidin-4-ol] | < 1000
OCCCc1ccc2c(c1)C(=CCCN1CCC(O)(c3ccc(Cl)cc3)CC1)c1cccnc1CO2 [Example 289, 4-(4-Chlorophenyl)-1-[3-(7-(1-(3-hydroxy)propyl)-5,11-dihydro[1]benzoxepino[2,3-b]pyridin-5-ylidene)propyl]piperidin-4-ol] | < 1000
CCOC(=O)[C@H]1CCCN(NC(=O)c2ccc3c(c2)C(=CCCN2CCC(O)(c4ccc(Cl)cc4)CC2)c2cccnc2CO3)C1 [Example 422, 4-(4-Chlorophenyl)-1-[3-(5,11-dihydro-7-(S-3-ethoxycarbonyl-piperidine-1-yl)-carbamoyl-[1]benzoxepino[2,3-b]pyridin-5-ylidene)propyl]piperidine-4-ol] | < 1000
O=C(OCCN1CCOCC1)c1ccc2c(c1)C(=CCCN1CCC(O)(c3ccc(Cl)cc3)CC1)c1cccnc1CO2 [Example 430, 4-(4-Chlorophenyl)-1-[3-(5,11-dihydro-7-(2-morpholinoethyl-1-yl)-oxycarbonyl-[1]benzoxepino[2,3-b]pyridin-5-ylidene)propyl]piperidine-4-ol] | < 1000
